Experimental data from patent publication US10010614B2, “Derivatives of GLP-1 like peptides, and uses thereof” (Novo Nordisk A/S, priority 2013, dated 2018).
Like-named read-outs stand apart in the source and are kept apart here. Numbered stars: 1 amine (or outer) side, 2 acyl side, 3 side chain; on linkers, the order of the positions; unused ones are H or OH. Square brackets hold non-standard residues; d marks the D form. Side chains are listed from the residue outwards. Peptide text beside a SMILES is read from it. * marks the point of attachment. C22 diacid = O=C(O)CCCCCCCCCCCCCCCCCCCCC(=O)*; C20 diacid = O=C(O)CCCCCCCCCCCCCCCCCCC(=O)*; γGlu = O=C(O)[C@H](CCC(=O)[*:2])N[*:1]; εLys = N[C@@H](CCCCN[*:1])C(=O)[*:2]; Trx = NC[C@H]1CC[C@H](C(=O)O)CC1; AEEA = NCCOCCOCC(=O)O; Aib = CC(C)(N)C(=O)O

Key:
[1] = Pharmacokinetic study in minipigs (i.v.); format: in vivo; conditions: male, Göttingen, minipig, plasma, iv; read-out: Terminal half-live (converted)
Experimental: The purpose of this study is to determine the protraction in vivo of the GLP-1 derivatives after i.v. administration to minipigs, i.e. the prolongation of their time in the body and thereby their time of action. This is done in a pharmacokinetic (PK) study, where the terminal half-life of the derivative in question is determined. By terminal half-life is meant the time it takes to halve a certain plasma concentration in the terminal elimination phase.
The derivatives of Examples 1-5 were dosed with 2 nmol/kg, the derivative of Example 6 was dosed with 5 nmol/kg, and the derivatives of Examples 7-9 were dosed with 15 nmol/kg.
Male Göttingen minipigs were obtained from Ellegaard Göttingen Minipigs (Dalmose, Denmark) approximately 7-14 months of age and weighing approximately 16-35 kg were used in the studies. The minipigs were housed either individually (pigs with permanent catheters) or in a group and fed restrictedly once or twice daily with SDS minipig diet (Special Diets Services, Essex, UK).
After at least 2 weeks of acclimatisation two permanent central venous catheters were implanted in vena cava caudalis or cranialis in each animal. The animals were allowed 1 week recovery after the surgery, and were then used for repeated pharmacokinetic studies with a suitable wash-out period between successive GLP-1 derivative dosings.
The GLP-1 derivatives were dissolved in 50 mM sodium phosphate, 70-145 mM sodium chloride, 0.05% tween 80, pH 7.4 to a concentration of usually from 20-60 nmol/ml.
Intravenous injections (the volume corresponding to for example 0.050-0.125 ml/kg) of the compounds were given through one catheter or through the venflon, and blood was sampled at predefined time points for up till 25 days post dosing (preferably through the other catheter or by venipuncture). Blood samples (for example 0.8 ml) were collected in EDTA buffer (8 mM) and then centrifuged at 4° C. and 1942G for 10 minutes.
Plasma was pipetted into Micronic tubes on dry ice, and kept at −20° C. until analysed for plasma concentration of the respective GLP-1 compound using LOCI. Individual plasma concentration-time profiles were analyzed by a non-compartmental pharmacokinetic method in Phoenix v. 6.2 (Pharsight Inc., Mountain View, Calif., USA), or other relevant software for PK analysis, and the resulting terminal half-lives (harmonic mean) determined.

human GLP-1 receptor [2] = target: T1, human GLP-1 receptor (Homo sapiens, UniProt P43220); test: In vitro potency, CRE luciferase reporter gene assay in BHK cells expressing the human GLP-1 receptor; format: cell-based; conditions: whole cell reporter gene assay, 3 h incubation, no HSA, averages of at least two replicates
T1 construct: expressed in transfected cells; host or cells: membranes prepared from BHK cells (parent line BHKTS13), clone FCW467-12A
T1 sequence (P43220 24-463): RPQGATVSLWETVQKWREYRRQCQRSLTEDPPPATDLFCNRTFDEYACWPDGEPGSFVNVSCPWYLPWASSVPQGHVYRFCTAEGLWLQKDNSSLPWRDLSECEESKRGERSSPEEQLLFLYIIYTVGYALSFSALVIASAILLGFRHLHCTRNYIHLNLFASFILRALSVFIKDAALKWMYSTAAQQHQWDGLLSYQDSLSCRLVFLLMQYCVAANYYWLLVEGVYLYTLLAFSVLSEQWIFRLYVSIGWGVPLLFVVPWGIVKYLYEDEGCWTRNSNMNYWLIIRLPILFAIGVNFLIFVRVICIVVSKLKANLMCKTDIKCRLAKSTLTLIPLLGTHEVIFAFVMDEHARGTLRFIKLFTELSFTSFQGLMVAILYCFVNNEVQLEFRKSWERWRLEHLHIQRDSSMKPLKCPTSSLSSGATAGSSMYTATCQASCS
Outline: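 Stably transfected BHK cells (5×10^3/well) expressing human GLP-1R with a CRE-luciferase reporter; compounds diluted in buffer with 2% ovalbumin and 0.2% Pluronic F-68, final 1×10^−7 to 1×10^−14 M. Incubated 3 h at 37 °C, 5% CO2, then luminescence read; potency from non-linear log(agonist)–response fit, mean of ≥2 replicates.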

human GLP-1 receptor [3] = target: T1, human GLP-1 receptor; test: GLP-1 receptor binding, competitive binding assay (125I-GLP-1, SPA) on isolated membranes;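 note: test compounds added at a range of concentrations to membranes from cells expressing the human GLP-1 receptor, scored by displacement of labelled ligand, read with WGA SPA beads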
[4] = High HSA IC50 (nM), high serum albumin (2.0% HSA final assay concentration)
[5] = Low HSA IC50 (nM), low serum albumin (max. 0.001% final assay concentration)

SMILES	half-life [1]	EC50 (human GLP-1 receptor [2])	IC50 (human GLP-1 receptor [3]; [4])	IC50 (human GLP-1 receptor [3]; [5])	IC50 (human GLP-1 receptor [3]; high serum albumin (2.0% HSA final assay concentration), read-out: High HSA IC50)	IC50 (human GLP-1 receptor [3]; low serum albumin (max. 0.001% final assay concentration), read-out: Low HSA IC50)
CC[C@H](C)[C@H](NC(=O)[C@H](Cc1ccccc1)NC(=O)[C@H](CCC(=O)O)NC(=O)[C@H](CCCNC(=N)N)NC(=O)[C@H](C)NC(=O)[C@H](C)NC(=O)[C@H](CCC(N)=O)NC(=O)[C@H](CCC(=O)O)NC(=O)[C@H](CCC(=O)O)NC(=O)[C@H](CC(C)C)NC(=O)[C@H](Cc1ccc(O)cc1)NC(=O)[C@H](CCCCNC(=O)COCCOCCNC(=O)COCCOCCNC(=O)CC[C@H](NC(=O)[C@H]1CC[C@H](CNC(=O)CCCCCCCCCCCCCCCCCCC(=O)O)CC1)C(=O)O)NC(=O)[C@H](CO)NC(=O)[C@@H](NC(=O)[C@H](CC(=O)O)NC(=O)[C@H](CO)NC(=O)[C@@H](NC(=O)[C@H](Cc1ccccc1)NC(=O)[C@@H](NC(=O)CNC(=O)[C@H](CCC(=O)O)NC(=O)C(C)(C)NC(=O)[C@@H](N)Cc1c[nH]cn1)[C@@H](C)O)[C@@H](C)O)C(C)C)C(=O)N[C@@H](C)C(=O)N[C@@H](Cc1c[nH]c2ccccc12)C(=O)N[C@@H](CC(C)C)C(=O)N[C@H](C(=O)N[C@@H](CCCNC(=N)N)C(=O)NCC(=O)N[C@@H](CCCNC(=N)N)C(=O)NCC(=O)NCC(=O)NCC(=O)NCC(=O)N[C@@H](CO)C(=O)N[C@@H](CCCCNC(=O)COCCOCCNC(=O)COCCOCCNC(=O)CC[C@H](NC(=O)[C@H]1CC[C@H](CNC(=O)CCCCCCCCCCCCCCCCCCC(=O)O)CC1)C(=O)O)C(=O)O)C(C)C [Example 6] (H-H[Aib]EGTFTSDVSK([AEEA-AEEA-γGlu-Trx-C20 diacid])YLEEQAAREFIAWLVRGRGGGGSK([AEEA-AEEA-γGlu-Trx-C20 diacid])-OH)	99 h	0.093 nM	≥ 1000 nM	1 nM	–	–
CC[C@H](C)[C@H](NC(=O)[C@H](Cc1ccccc1)NC(=O)[C@H](CCCCNC(=O)[C@@H](N)CCCCNC(=O)[C@@H](N)CCCCNC(=O)CC[C@H](NC(=O)CCCCCCCCCCCCCCCCCCC(=O)O)C(=O)O)NC(=O)[C@H](CCCNC(=N)N)NC(=O)[C@H](C)NC(=O)[C@H](C)NC(=O)[C@H](CCC(N)=O)NC(=O)[C@H](CCC(=O)O)NC(=O)[C@H](CCC(=O)O)NC(=O)[C@H](CC(C)C)NC(=O)[C@H](Cc1ccc(O)cc1)NC(=O)[C@H](CO)NC(=O)[C@H](CO)NC(=O)[C@@H](NC(=O)[C@H](CC(=O)O)NC(=O)[C@H](CO)NC(=O)[C@@H](NC(=O)[C@H](Cc1ccccc1)NC(=O)[C@@H](NC(=O)CNC(=O)[C@H](CCC(=O)O)NC(=O)C(C)(C)NC(=O)[C@@H](N)Cc1c[nH]cn1)[C@@H](C)O)[C@@H](C)O)C(C)C)C(=O)N[C@@H](C)C(=O)N[C@@H](Cc1c[nH]c2ccccc12)C(=O)N[C@@H](CC(C)C)C(=O)N[C@H](C(=O)N[C@@H](CCCNC(=N)N)C(=O)NCC(=O)N[C@@H](CCCNC(=N)N)C(=O)NCC(=O)NCC(=O)NCC(=O)NCC(=O)N[C@@H](CO)C(=O)N[C@@H](CCCCNC(=O)[C@@H](N)CCCCNC(=O)[C@@H](N)CCCCNC(=O)CC[C@H](NC(=O)CCCCCCCCCCCCCCCCCCC(=O)O)C(=O)O)C(=O)O)C(C)C [Example 8, N{Epsilon-27}-[(2S)-2-amino-6-[[(2S)-2-amino-6-[[(4S)-4-carboxy-4-(19-carboxynonadecanoylamino)butanoyl]amino]hexanoyl]amino]hexanoyl]-[Aib8,Glu22,Arg26,Lys27,Arg34]-GLP-1-(7-37)-peptidyl-Gly-Gly-Gly-Ser-N{Epsilon}[(2S)-2-amino-6-[[(2S)-2-amino-6-[[(4S)-4-carboxy-4-(19-carboxynonadecanoylamino)butanoyl]amino]hexanoyl]amino]hexanoyl]Lys] (H-H[Aib]EGTFTSDVSSYLEEQAARK([εLys-εLys-γGlu-C20 diacid])FIAWLVRGRGGGGSK([εLys-εLys-γGlu-C20 diacid])-OH)	137 h	0.26 nM	–	–	383 nM	0.43 nM
CC[C@H](C)[C@H](NC(=O)[C@H](Cc1ccccc1)NC(=O)[C@H](CCC(=O)O)NC(=O)[C@H](CCCNC(=N)N)NC(=O)[C@H](C)NC(=O)[C@H](C)NC(=O)[C@H](CCC(N)=O)NC(=O)[C@H](CCC(=O)O)NC(=O)[C@H](CCC(=O)O)NC(=O)[C@H](CC(C)C)NC(=O)[C@H](Cc1ccc(O)cc1)NC(=O)[C@H](CO)NC(=O)[C@H](CO)NC(=O)[C@@H](NC(=O)[C@H](CC(=O)O)NC(=O)[C@H](CO)NC(=O)[C@@H](NC(=O)[C@H](Cc1ccccc1)NC(=O)[C@@H](NC(=O)CNC(=O)[C@H](CCC(=O)O)NC(=O)C(C)(C)NC(=O)[C@@H](N)Cc1c[nH]cn1)[C@@H](C)O)[C@@H](C)O)C(C)C)C(=O)N[C@@H](C)C(=O)N[C@@H](Cc1c[nH]c2ccccc12)C(=O)N[C@@H](CC(C)C)C(=O)N[C@H](C(=O)N[C@@H](CCCNC(=N)N)C(=O)NCC(=O)N[C@@H](CCCNC(=N)N)C(=O)NCC(=O)N[C@@H](CCCCNC(=O)COCCOCCNC(=O)COCCOCCNC(=O)CC[C@H](NC(=O)[C@H]1CC[C@H](CNC(=O)CCCCCCCCCCCCCCCCCCCCC(=O)O)CC1)C(=O)O)C(=O)NCC(=O)NCC(=O)N[C@@H](CO)C(=O)N[C@@H](CCCCNC(=O)COCCOCCNC(=O)COCCOCCNC(=O)CC[C@H](NC(=O)[C@H]1CC[C@H](CNC(=O)CCCCCCCCCCCCCCCCCCCCC(=O)O)CC1)C(=O)O)C(=O)O)C(C)C [Example 9] (H-H[Aib]EGTFTSDVSSYLEEQAAREFIAWLVRGRGK([AEEA-AEEA-γGlu-Trx-C22 diacid])GGSK([AEEA-AEEA-γGlu-Trx-C22 diacid])-OH)	167 h	0.101 nM	21 nM	1.6 nM	–	–
